According to US20260028352A1, “MACROCYCLIC IMIDAZO [1,2-B] PYRIDAZINE DERIVATIVE, PREPARATION METHOD THEREFOR, AND USE THEREOF” (SUZHOU LANGRUI BIOPHARMACEUTICAL CO., LTD., priority 2022, published 2026):
pIC50: −log10 of the molar value.

Test system: Ba/F3-TPM3-NTRK1-G667C cells
Experiment: Growth inhibition of Ba/F3-TPM3-NTRK1-G667C cells (Cell Titer-Glo)
Format: cell-based
Conditions: 72 hours, CTG; read-out: inhibitory activity IC50 Ba/F3-TPM3-NTRK1-G667C
Description: Then the solutions were subjected to a gradient dilution with DMSO: a clean, sterile V-bottom 96-well microplate was placed in the biological safety cabinet. First, 4 μL of DMSO was added to well B2 and 10 μL of DMSO was added to wells B3-B11 respectively; Next, 6 μL of the 10 mM solution was added to well B2. The microplate was pipetted up and down 10 times for mixing. […] Mixing was performed by pipetting up and down 10 times. The solution was diluted in order until well B10. only DMSO was added to well B11 (no compound).
6× Compound Solution Preparation (6-fold dilution, × represents dilution factor): (Initial final concentration: 10 μM), a clean, sterile V-bottom 96-well microplate was placed in the biological safety cabinet. 99 μL of cell culture medium was added to each well from B2 to G11. By using a 12-channel pipettor, 1 μL of the compound solution prepared in the previous step was added into the corresponding wells. The solutions were pipetted up and down 10 times to mix the solutions. The highest concentration of compound in this step was 60 μM.
Treatment of Cells: the above-prepared cell culture plate was taken out of the incubator. 20 μL of compound solution from each well was added to the corresponding cell culture wells. The lowest pipetting speed was used and touching the bottom of the plate was avoided. The culture plate was gently shaked to mix the compound solution, then the plate was returned to the incubator for further culture for 72 hours.
The highest treatment concentration of the compound was 10 μM. After 72 hours of treatment, the Cell Titer-Glo (CTG) assay was performed. First, the cell culture plate was removed from the CO2 incubator and allowed to stand at room temperature for 30 minutes to ensure uniform temperature of the plate. The pre-prepared Cell Titer-Glo reagent (following the manufacturer's instructions) was taken and allowed to stand at room temperature to thaw. 60 μL of Cell Titer-Glo reagent was added to each well containing cells. The cells were incubated on a horizontal shaker in a dark place at 225 rpm for 1 hour at room temperature. Then, a Tecan Spark microplate reader was used to read the plate using chemiluminescence according to the manufacturer's instructions.

## CC1Nc2ccc3ncc(n3n2)-c2cc(ccn2)OCc2ccc(F)cc21 (stereo not drawn) [Example I-13, (E)-5^4-fluoro-6-methyl-3-oxa-7-aza-1(3,6)-imidazo[1,2-b]pyridazina-2(2,4)-pyridina-5(1,2)-benzenacycloheptaphane]
  pIC50: > 7.00

## C[C@@H]1Cc2ccnc(c2)-c2cnc3ccc(nn23)N[C@H](C)c2cc(F)ccc2O1 [Example I-34, (4R,7R,E)-5^5-fluoro-4,7-dimethyl-6-oxa-3-aza-2(3,6)-imidazo[1,2-b]pyridazina-1(2,4)-pyridina-5(1,2)-benzenacyclooctaphane]
  pIC50: > 7.00

## C[C@@H]1Cc2cc(ncn2)-c2cnc3ccc(nn23)N[C@H](C)c2cc(F)ccc2O1 [Example I-35, (4R,7R,E)-5^5-fluoro-4,7-dimethyl-6-oxa-3-aza-2(3,6)-imidazo[1,2-b]pyridazina-1(4,6)-pyrimidina-5(1,2)-benzenacyclooctaphane]
  pIC50: > 7.00

## C[C@@H]1Cc2ccnc(c2)-c2cnc3ccc(nn23)N[C@H](C)c2cc(F)cnc2O1 [Example I-36, (4R,7R,E)-5^5-fluoro-4,7-dimethyl-6-oxa-3-aza-2(3,6)-imidazo[1,2-b]pyridazina-1(2,4), 5(3,2)-dipyridinacyclooctaphane]
  pIC50: > 7.00

## C[C@@H]1Cc2ccnc(c2)-c2cnc3ccc(nn23)N2CCC[C@@H]2c2cc(F)ccc2O1 [Example I-37, (3^2R,6R,E)-4^5-fluoro-6-methyl-5-oxa-2(3,6)-imidazo[1,2-b]pyridazina-1(2,4)-pyridina-3(1,2)-pyrrolidina-4(1,2)-benzenacycloheptaphane]
  pIC50: > 7.00

## C[C@@H]1Cc2ccnc(c2)-c2cnc3ccc(nn23)N2CCC[C@@H]2c2cc(F)cnc2O1 [Example I-38, (3^2R,6R,E)-4^5-fluoro-6-methyl-5-oxa-2(3,6)-imidazo[1,2-b]pyridazina-1(2,4),4(3,2)-dipyridina-3(1,2)-pyrrolidinacycloheptaphane]
  pIC50: > 7.00

## C[C@H]1Nc2ccc3ncc(n3n2)-c2cc(ccn2)N2CC[C@H](C2)Oc2ccc(F)cc21 [Example I-41, (3^3R,6R,E)-5^4-fluoro-6-methyl-4-oxa-7-aza-1(3,6)-imidazo[1,2-b]pyridazina-2(2,4)-pyridina-3(1,3)-pyrrolidina-5(1,2)-benzenacycloheptaphane]
  pIC50: > 7.00

## C[C@H]1Nc2ccc3ncc(n3n2)-c2cc(ccn2)N2CC[C@@H](C2)Oc2ccc(F)cc21 [Example I-42, (3^3S,6R,E)-5^4-fluoro-6-methyl-4-oxa-7-aza-1(3,6)-imidazo[1,2-b]pyridazina-2(2,4)-pyridina-3(1,3)-pyrrolidina-5(1,2)-benzenacycloheptaphane]
  pIC50: > 7.00

## C[C@H]1Nc2ccc3ncc(n3n2)-c2cc(ccn2)N2CCC[C@H](C2)Oc2ccc(F)cc21 [Example I-43, (3^3R,6R,E)-5^4-fluoro-6-methyl-4-oxa-7-aza-1(3,6)-imidazo[1,2-b]pyridazina-2(2,4)-pyridina-3(1,3)-piperidina-5(1,2)-benzenacycloheptaphane]
  pIC50: > 7.00

## C[C@H]1Nc2ccc3ncc(n3n2)-c2cc(ccn2)N2CCC[C@@H](C2)Oc2ccc(F)cc21 [Example I-44, (3^3S,6R,E)-5^4-fluoro-6-methyl-4-oxa-7-aza-1(3,6)-imidazo[1,2-b]pyridazina-2(2,4)-pyridina-3(1,3)-piperidina-5(1,2)-benzenacycloheptaphane]
  pIC50: > 7.00

## Fc1ccc2c(c1)[C@H]1CCCN1c1ccc3ncc(n3n1)-c1cc(ccn1)[C@H]1CCC[C@H]1O2 [Example I-45, (8aR,11aR,16bR,E)-15-fluoro-8a,10,11,11a,16b,17,18,19-octahydro-9H-1,21-etheno-4,8-(metheno)benzo[b]cyclopenta[o]imidazo[1,5-h]pyrrolo[2,1-d][1]oxa[5,7,8,11]tetraazacyclohexadecine]
  pIC50: > 7.00

## Fc1ccc2c(c1)[C@H]1CCCN1c1ccc3ncc(n3n1)-c1cc(ccn1)[C@@H]1CCC[C@H]1O2 [Example I-46, (8aS,11aR,16bR,E)-15-fluoro-8a,10,11,11a,16b,17,18,19-octahydro-9H-1,21-etheno-4,8-(metheno)benzo[b]cyclopenta[o]imidazo[1,5-h]pyrrolo[2,1-d][1]oxa[5,7,8,11]tetraazacyclohexadecine]
  pIC50: > 7.00

## Fc1ccc2c(c1)C1(CC1)Nc1ccc3ncc(n3n1)-c1cc(ccn1)CO2 [Example I-47, (E)-4′-fluorospiro[cyclopropane-1,6′-4-oxa-7-aza-1(3,6)-imidazo[1,2-b]pyridazina-2(2,4)-pyridina-5(1,2)-benzenacycloheptaphane]]
  pIC50: > 7.00

## CC1(C)Nc2ccc3ncc(n3n2)-c2cc(ccn2)COc2ccc(F)cc21 [Example I-48, (E)-5^4-fluoro-6,6-dimethyl-4-oxa-7-aza-1(3,6)-imidazo[1,2-b]pyridazina-2(2,4)-pyridina-5(1,2)-benzenacycloheptaphane]
  pIC50: > 7.00

## Fc1cnc2c(c1)[C@H]1CCCN1c1ccc3ncc(n3n1)-c1cc(ccn1)CO2 [Example I-51, (14bR,E)-13-fluoro-14b,15,16,17-tetrahydro-9H-1,19-etheno-4,8-(metheno)imidazo[1,5-h]pyrido[2,3-b]pyrrolo[2,1-d][1]oxa[5,7,8,11]tetraazacyclopentadecine]
  pIC50: > 7.00

## Fc1ccc2c(c1)[C@H]1CCCN1c1ccc3ncc(n3n1)-c1cc(ccn1)CCO2 [Example I-53, (3^2R,E)-4^5-fluoro-5-oxa-2(3,6)-imidazo[1,2-b]pyridazina-1(2,4)-pyridina-3(1,2)-pyrrolidina-4(1,2)-benzenacycloheptaphane]
  pIC50: > 7.00

## Fc1cnc2c(c1)[C@H]1CCCN1c1ccc3ncc(n3n1)-c1cc(ccn1)CCO2 [Example I-55, (3^2R,E)-4^5-fluoro-5-oxa-2(3,6)-imidazo[1,2-b]pyridazina-1(2,4),4(3,2)-dipyridina-3(1,2)-pyrrolidinacycloheptaphane]
  pIC50: > 7.00

## Fc1ccc2c(c1)[C@H]1CCCN1c1ccc3ncc(n3n1)-c1cc(ncn1)CO2 [Example I-57, (14bR,E)-13-fluoro-14b,15,16,17-tetrahydro-9H-1,19-etheno-4,8-(metheno)benzo[n]imidazo[5,1-h]pyrrolo[1,2-l][1]oxa[4,6,9,10,12]pentaazacyclopentadecine]
  pIC50: > 7.00

## Fc1cnc2c(c1)[C@H]1CCCN1c1ccc3ncc(n3n1)-c1cc(ncn1)CO2 [Example I-59, (14bR,E)-13-fluoro-14b,15,16,17-tetrahydro-9H-1,19-etheno-4,8-(metheno)imidazo[5,1-h]pyrido[3,2-n]pyrrolo[1,2-l][1]oxa[4,6,9,10,12]pentaazacyclopentadecine]
  pIC50: > 7.00

## Fc1ccc2c(c1)[C@H]1CCCN1c1ccc3ncc(n3n1)-c1nccc(n1)CO2 [Example I-61, (14bR,E)-13-fluoro-14b,15,16,17-tetrahydro-9H-4,8-(azeno)-1,19-etheno benzo[b]imidazo[1,5-h]pyrrolo[2,1-d][1]oxa[5,7,8,11]tetraazacyclopentadecine]
  pIC50: > 7.00

## Fc1cnc2c(c1)[C@H]1CCCN1c1ccc3ncc(n3n1)-c1nccc(n1)CO2 [Example I-63, (14bR,E)-13-fluoro-14b,15,16,17-tetrahydro-9H-4,8-(azeno)-1,19-etheno imidazo[1,5-h]pyrido[2,3-b]pyrrolo[2,1-d][1]oxa[5,7,8,11]tetraazacyclopentadecine]
  pIC50: > 7.00
